pIC50: −log10 of the molar value. Read-outs that look alike come from different tables or passages of the source.
Legend:
[1] = test system: cancer multicellular spheroids formed from HCT116 cells; assay: 3D multicellular spheroids culture, alamarBlue assay, 72 h; type: cell-based, human
Experimental: HCT116 cells were cultivated in three-dimensional (3D) multicellular spheroids. Briefly, 100 μL of a solution of cells (0.5 × 10^6 cells/mL) was inserted in 96-well plates with a cell-repellent surface (Greiner Bio-One, Kremsmünster, Austria) and cultured in complete medium plus 3% Matrigel (BD Biosciences, San Jose, CA, USA). Spheroids with stable structures had formed after three days. Then, the spheroids were exposed to a range of drug concentrations for 72 h, after which the cell viability was quantified by alamarBlue assay as described above.

HCT116 cells [2] = assay: Morphological analysis (May-Grünwald-Giemsa); type: cell-based, human; settings: 24 and 48 h, DOX 1 μM, OXA 2.5 μM
Experimental: To evaluate alterations in morphology, cells were cultured under coverslip and stained with May-Grünwald-Giemsa. Morphological changes were examined by light microscopy using Image-Pro software.

HCT116 cells [3] = type: cell-based, human
Experimental: Cells were harvested in a permeabilization solution containing 0.1% Triton X-100 (Sigma Chemical Co., St Louis, MO, USA), 2 μg/mL propidium iodide (Sigma Chemical Co.), 0.1% sodium citrate, and 100 μg/mL RNAse (Sigma Chemical Co.) and incubated in the dark for 15 min at room temperature. Finally, cell fluorescence was measured by flow cytometry on a BD LSRFortessa cytometer using the BD FACSDiva software (BD Biosciences) and FlowJo software 10 (FlowJo, LCC, Ashland, OR, USA).

[4] = test system: caspase-3 in HCT116 cells; assay: Caspase-3 activation assay (colorimetric, Ac-DEVD-pNA); type: cell-based, human; settings: HCT116, 48 h, p < 0.05
Experimental: A Caspase-3 Colorimetric Assay Kit (Sigma-Aldrich Co.) was used to investigate caspase-3 activation in xylopine-treated HCT116 cells based on the cleavage of Ac-DEVD-pNA and the analysis was performed according to the manufacturer's instructions.

[5] = test system: human hepatocellular carcinoma HepG2 cells; parameters: method as in PMID 27399666; settings: cited from earlier work
HCT116 cells [6] = assay: Mitochondrial transmembrane potential (rhodamine 123); type: cell-based, human; settings: HCT116, rhodamine 123, 24 h, p < 0.05
Experimental: Mitochondrial transmembrane potential was determined by the retention of the dye rhodamine 123 [9]. Cells were incubated with rhodamine 123 (5 μg/mL, Sigma-Aldrich Co.) at room temperature for 15 min in the dark and washed with saline. The cells were then incubated again in saline for 30 min in the dark and cell fluorescence was determined by flow cytometry as described above.

[7] = test system: PBMC (human peripheral blood mononuclear cells); assay: Cytotoxic activity, alamarBlue assay, 72 h (noncancer cells); type: cell-based; settings: Homo sapiens
From the text: (§1) MCF7 (human breast carcinoma), HCT116 (human colon carcinoma), HepG2 (human hepatocellular carcinoma), SCC-9 (human oral squamous cell carcinoma), HSC-3 (human oral squamous cell carcinoma), HL-60 (human promyelocytic leukemia), K-562 (human chronic myelogenous leukemia), B16-F10 (murine melanoma), MRC-5 (human lung fibroblast), WT SV40 MEF (wild-type immortalized mouse embryonic fibroblast), and BAD KO SV40 MEF (BAD gene knockout immortalized mouse embryonic fibroblast) cell lines were obtained from the American Type Culture Collection (ATCC, Manassas, VA, USA). Cells were cultured in complete medium with appropriate supplements as recommended by ATCC. All cell lines were tested for mycoplasma using the Mycoplasma Stain Kit (Sigma-Aldrich) to validate the use of cells free from contamination. Primary cell culture of peripheral blood mononuclear cells (PBMC) was obtained by standard Ficoll density protocol. The Research Ethics Committee of the Oswaldo Cruz Foundation (Salvador, BA, Brazil) approved the experimental protocol (number 031019/2013). Cell viability was examined using trypan blue exclusion assay for all experiments.
(§2) Cell viability was quantified using the alamarBlue assay according to Ahmed et al.. Cells were inserted in 96-well plates for all experiments (7 × 10^4 cells/mL for adherent cells or 3 × 10^5 cells/mL for suspended cells in 100 μL of medium). After 24 h, xylopine was dissolved in dimethyl sulfoxide (DMSO) and added to each well and incubated for 72 h. […] Four (for cell lines) or 24 h (for PBMCs) before the end of incubation, 20 μL of a stock solution (0.312 mg/mL) of the alamarBlue (resazurin, Sigma-Aldrich Co., Saint Louis, MO, USA) was added to each well. Absorbance at 570 nm and 600 nm was measured using the SpectraMax 190 Microplate Reader (Molecular Devices, Sunnyvale, CA, USA), and the drug effect was quantified as the percentage of control absorbance.

[8] = test system: MRC5 (human lung fibroblast); assay: as above; type: cell-based; settings: Homo sapiens
From the text: as §1, §2

HCT116 cells [9] = assay: Nitric oxide production (DAF-FM diacetate); type: cell-based, human; settings: 1 h
Experimental: Nitric oxide generation was detected with 4-amino-5-methylamino-2′-,7′-difluofluorescein diacetate (DAF-FM diacetate) (Molecular Probes, Eugene, OR, USA). The cells were labeled with 3 μM of DAF-FM diacetate for 60 minutes at 37°C. Following staining cells were washed with saline and incubated for an additional 15 minutes at 37°C to allow for complete deesterification of the intracellular diacatates. Then, the nitric oxide radical was measured by flow cytometry as described above.

[10] = HCT116, XYL 3.5 μM, 24 h incubation
[11] = HCT116, XYL 3.5 μM, 48 h incubation
[12] = HCT116, XYL 7 μM, 24 h incubation
[13] = HCT116, XYL 7 μM, 48 h incubation
[14] = HCT116, XYL 14 μM, 24 h incubation
[15] = HCT116, XYL 14 μM, 48 h incubation

## COc1ccc2c(c1)C[C@@H]1NCCc3cc4c(c-2c31)OCO4 [XYL, xylopine]
[1]; 3D spheroids of HCT116, light microscopy
  morphology of spheroids: morphological alterations that indicate drug permeability and cytotoxicity in the 3D culture
[1]; Homo sapiens, HCT-116, 3D spheroids of HCT116, alamarBlue, 72 h
  IC50: 24.6 µM
HCT116 cells [2]
  cell morphology: reduction in the cell volume, chromatin condensation, and fragmentation of the nuclei
HCT116 cells [3]; [10]
  DNA content (%) G0/G1: 17.0 ± 7.0^∗ %
  DNA content (%) G2/M: 57.2 ± 3.5^∗ %
  DNA content (%) S: 24.7 ± 4.8%
  DNA content (%) Sub-G0/G1: 6.2 ± 1.9%
HCT116 cells [3]; HCT116, XYL 3.5 μM, 24 h incubation, listed as xylopine
  DNA content (%) G2/M: 57.2%
HCT116 cells [3]; [11]
  DNA content (%) G0/G1: 17.0 ± 6.3^∗ %
  DNA content (%) G2/M: 52.0 ± 6.8^∗ %
  DNA content (%) S: 11.1 ± 2.2%
  DNA content (%) Sub-G0/G1: 15.2 ± 1.9%
HCT116 cells [3]; HCT116, XYL 3.5 μM, 48 h incubation, listed as xylopine
  DNA content (%) G2/M: 52.0%
HCT116 cells [3]; [12]
  DNA content (%) G0/G1: 14.9 ± 4.2^∗ %
  DNA content (%) G2/M: 58.5 ± 2.9^∗ %
  DNA content (%) S: 23.3 ± 3.7%
  DNA content (%) Sub-G0/G1: 5.1 ± 1.6%
HCT116 cells [3]; HCT116, XYL 7 μM, 24 h incubation, listed as xylopine
  DNA content (%) G2/M: 58.5%
HCT116 cells [3]; [13]
  DNA content (%) G0/G1: 10.3 ± 1.3^∗ %
  DNA content (%) G2/M: 52.7 ± 3.6^∗ %
  DNA content (%) S: 6.8 ± 2.0%
  DNA content (%) Sub-G0/G1: 25.9 ± 2.5^∗ %
HCT116 cells [3]; HCT116, XYL 7 μM, 48 h incubation, listed as xylopine
  DNA content (%) G2/M: 52.7%
HCT116 cells [3]; [14]
  DNA content (%) G0/G1: 30.5 ± 6.0%
  DNA content (%) G2/M: 54.0 ± 6.1^∗ %
  DNA content (%) S: 11.1 ± 1.6%
  DNA content (%) Sub-G0/G1: 11.3 ± 1.4%
HCT116 cells [3]; HCT116, XYL 14 μM, 24 h incubation, listed as xylopine
  DNA content (%) G2/M: 54.0%
HCT116 cells [3]; [15]
  DNA content (%) G0/G1: 14.6 ± 2.6^∗ %
  DNA content (%) G2/M: 40.8 ± 5.7^∗ %
  DNA content (%) S: 9.3 ± 1.7%
  DNA content (%) Sub-G0/G1: 33.4 ± 6.2^∗ %
HCT116 cells [3]; HCT116, XYL 14 μM, 48 h incubation, listed as xylopine
  DNA content (%) G2/M: 40.8%
[4]
  caspase-3 activation: increased caspase-3 activation
[5]
  cell cycle arrest and apoptosis: causes G2/M cell cycle arrest and apoptosis
HCT116 cells [6]
  mitochondrial depolarization: induced mitochondrial depolarization
[7]
  pIC50: 4.74
[8]
  pIC50: 4.62
HCT116 cells [9]
  nitric oxide level: increases nitric oxide
